According to patent US20220233523A1, “ANTIBIOTIC POTENTIATION FOR NONTUBERCULOUS MYCOBACTERIAL DISEASE” (priority 2019, published 2022):
Entries after “also recorded” stand apart in the source; their conditions may differ. Marks after values point to notes of the source that are not given here.

Legend:
Assay type in all cases: cell-based, Mycobacterium avium subsp hominissuis 104 (MAH104)
[1] = tested on: M. avium 104 static biofilms; assay: Static biofilm formation in the presence of metabolites (crystal violet); conditions: for biofilm formation with 1% and 0.5% of fatty acid: 7H9, 7 days at 37° C., crystal violet
Method: Static biofilms were used in the present study as described previously (Rose S J, Bermudez L E., Infection and Immunity 2014; 82:405-12). Briefly, mycobacteria were taken from 7H10 agar plates and resuspended in deionized water (10^9 of colony forming units/ml; CFU/ml). The bacterial suspension was then washed 3 times with deionized water to remove any remaining of 7H10 media (3500 rpm for 20 minutes at 20° C.). After washing, the MAH104 were resuspended in 7H9 medium without any carbon sources (OADC, glycerol, tween 20 and tween 80) (non-supplemented 7H9) and suspensions were left alone to allow clumped bacteria to settle. The top half of the suspension was transferred to new tube and adjusted to 1×10^8 CFU/ml, using visual turbidity and optical density. Suspensions were inoculated in 96-well polystyrene plates (BD, Franklin Lakes, N.J.) (100 μl for each well [or 10^7 bacteria per well]) and biofilms were formed at 37° C. for 7 days or for 14 days when indicated. […] The raw O.D. at 570 nm values were discounted from O.D. 570 nm average of blank wells (wells with only 7H9 media).
(§1) Assays with biofilms incubated with propionic acid, butyric acid, and glycerol were performed to test whether these metabolites affect the formation of biofilms. All the experiments were made in non-supplemented 7H9. The effect of these metabolites was evaluated during biofilm formation, in pre-established biofilms and in M. avium cells pre-attached to polystyrene. To evaluate the effect of targeted metabolites during biofilm formation, mycobacteria suspensions were prepared and inoculated in 96 wells polystyrene plates, as already described, and biofilms were formed in the presence or not of the short-chain fatty acids at different concentrations (1%, 0.5%, 0.1%, 0.05% and 0.01%). For glycerol, only 0.2% was used. The biofilms were formed in 7H9 media at 37° C. for 7 days. For pre-established biofilms, MAH104 was again inoculated in 96 wells plates and biofilms were formed as described herein. […] It was also evaluated whether these metabolites could promote the growth of MAH104 cells present in biofilms through the measurement of […] every 24 hours. Finally, mycobacteria suspension with low density made in 7H9 broth (containing 1×10^6 bacteria/ml) were seeded in 96 wells polystyrene plates and incubated for 7 days at 37° C. […] The growth of pre-attached bacterial cells was followed every 24 hours through O.D.595 nm. The biofilm formation was evaluated by crystal violet.
The next step was to evaluate the capacity of tested substrates to promote the growth of mycobacteria cells that are present in biofilms. […] MAH 104 cells in the presence of non-supplemented 7H9 were used as a negative control. […]

[2] = tested on: intracellular MAH 104 in THP-1 macrophages; assay: Treatment of MAH inside human THP-1 macrophages with antibiotics and metabolites (CFU); conditions: for CFU/ml of macrophage lysate, 2 h: 2 h (baseline); for CFU/ml of macrophage lysate, 4 days: clarithromycin 16 μg/ml, amikacin 4 μg/ml, none 8.2 +/− 0.3 × 10^5
Method: Human THP-1 cell line (TIB-202) (American Type Culture Collection, Manassas, Va.) was cultivated in RPMI-1640 medium with 10% of heat-inactivated fetal bovine serum (FBS, GEMINI B10-PRODUCTS, Sacramento, Calif.), at 37° C. with 5% CO2. The THP-1 cells were maintained in 75 cm^2 tissue culture flasks. The differentiation of THP-1 monocytes into macrophages with PMA (phorbol 12-myristate 13-acetate) (SIGMA ALDRICH) and intracellular antibiotic killing assays were performed as previously described (Rojony et al., Clinical proteomics 2019; 16:39). […] As a negative control, differentiated THP-1 cells were incubated without any antibiotics and with no metabolites. THP-1 cells were replenished with new media containing antibiotics, or no antibiotic, every other day. Cells were lysed at 2 h (baseline) and day 4 and subsequently the number of viable bacteria was determined by CFU counting on 7H10 agar plates.

[3] = tested on: pre-established MAH104 biofilms; assay: Effect of metabolites on pre-established biofilms; conditions: for O.D.570 nm of pre-established biofilms (biofilm formation): 7 days at 37° C. with metabolite, 7H9 0.332±0.073
Method: as §1
Next, the effect of short-chain fatty acids and glycerol in pre-established biofilms was tested. In parallel, the O.D.595 nm of pre-established biofilm cultures were also measured for 7 days in order to check whether the bacterial cells in biofilm multiplied in the presence of the targeted substrates. […] In addition, we observed a significant increase in the biofilm formation (O.D.570 nm values) when mycobacteria biofilm was incubated with glycerol (7H9, O.D.570 nm=0.332±0.073; glycerol, O.D.570 nm=1.562±0.1751; P=0.0029).

[4] = tested on: MAH (strain 104) in established biofilms; assay: Treatment of established MAH biofilms with antibiotics and metabolites (CFU); conditions: for killing capacity of clarithromycin: established M. avium 104 biofilms, 72 hours, FIG. 4A-D; for CFU/ml at 14 days: established biofilms, clarithromycin 16 μg/ml, amikacin 4 μg/ml, 0.05% propionic or butyric acid, 0.2% glycerol, none 4.2 +/− 0.5 × 10^8
Method: To assess the antibiotic tolerance of MAH biofilms to amikacin (4 μg/ml) and clarithromycin (16 μg/ml), biofilms were formed for 14 days as described herein. […] As a negative control, biofilms were incubated only with non-supplemented 7H9 without any antibiotics. […] Subsequently, 100 μl of 0.02% of Triton X-100 (final concentration 0.01%) was added to the established biofilms to mix, dilute and perform CFU analysis with the entire population of biofilms (attached and unattached).
Mycobacteria biofilms were first established and then treated or not treated with antibiotics. In parallel, biofilms were also co-treated with antibiotics and the targeted metabolites.

[5] = tested on: planktonic cultures of MAH104; assay: Growth of planktonic cultures in non-supplemented 7H9 with metabolites; conditions: propionic acid and butyric acid at 0.05%, glycerol 0.2%; 12 days at 37° C.
Method: MAH104 from 7H10 agar was used to make bacterial suspension in deionized water (10^9 CFU/ml) and then the suspension was centrifuged three times to wash the bacteria cells (3500 rpm for 20 minutes at 20° C.). After washing step, the bacterial suspensions were resuspended in 7H9 medium and suspensions were left alone to allow clumped bacteria to settle. The top half of the suspension was transferred to new tube and adjusted to 1×10^8 CFU/ml, using visual turbidity and optical density. […] These cultures were incubated at 37° C. for 12 days and the O.D.595 nm was measured at each 72 hours.
We determined the optimal concentration for the growth of MAH104 in non-supplemented 7H9 media since the amounts of these metabolites available in Biolog plates are unknown. […] The experiments were made in non-supplemented 7H9 medium (without any carbon sources: no OADC, no glycerol, and no tween 20 or 80) (FIG. 2A-C), which is the condition applied in the biofilms assay.

SMILES	biofilm formation with 1% and 0.5% of fatty acid [1]	CFU/ml of macrophage lysate, 2 h [2]	CFU/ml of macrophage lysate, 4 days [2]	O.D.570 nm of pre-established biofilms (biofilm formation) [3]	killing capacity of clarithromycin [4]	CFU/ml at 14 days [4]	growth of planktonic MAH104 in non-supplemented 7H9 [5]	bacterial killing by clarithromycin and amikacin in macrophages after co-treatment ([2]; THP1 macrophages)	increase in biofilm formation in comparison with non-supplemented 7H9 ([1]; glycerol 0.2%, 7 days) [×]	O.D.595 nm of pre-established biofilm cultures ([3]; after 24 hours of culture, 7H9 media 0.452±0.049)
CCCC(=O)O [Butyric acid]	same results; also recorded: significant decrease	2.0 +/− 0.4 × 10^5 CFU/ml	8.4 +/− 0.5 × 10^5 CFU/ml	0.490±0.121	increase	3.4 +/− 0.6 × 10^6* (1) CFU/ml	able to grow	–	–	–
CCC(=O)O [Propionic acid]	unable to form biofilm; also recorded: significant decrease	2.0 +/− 0.4 × 10^5 CFU/ml	8.0 +/− 0.2 × 10^5 CFU/ml	0.3855±0.048	increase	5.5 +/− 0.4 × 10^6*(1) CFU/ml	able to grow	increased significantly	–	–
OCC(O)CO [Glycerol]	–	3.1 +/− 0.4 × 10^5 CFU/ml	2.0 +/− 0.5 × 10^5* (1) CFU/ml	1.562±0.1751	increase	1.1 +/− 0.3 × 10^9* CFU/ml	able to support MAH104 growth	–	3.2	0.609±0.069
